# Test results: patent US12171734B2, “Pathogenic bacteria” (Sporegen Limited, priority 2018, dated 2024)
# “Also recorded” adds a separate entry of the source. Numbered stars: 1 amine (or outer) side, 2 acyl side, 3 side chain; on linkers, the order of the positions; unused ones are H or OH. Bridge positions count the residues as written; N and C are the ends. Square brackets hold non-standard residues; d marks the D form. Peptide text beside a SMILES is read from it. X1 = CC(C)CCCCCCCCC[C@H](CC(=O)[*:1])O[*:2]; X2 = CCC(C)CCCCCCCCCCC(CC(=O)[*:2])N[*:1]
# Legend:
# [1] = test system: CD630; test: Bacteriolytic vs bacteriocidal vs bacteriostatic activity on log-phase CD630 cultures (OD600, CFU); assay type: cell-based, C. difficile; conditions: activity normalised; added at log phase
# Procedure: Fractions 1-3 were analysed for their ability to inhibit growth of cultures of CD630 by addition of test material at the log phase of cell growth (OD600˜0.3). Test materials were diluted in dH2O to normalise so that each sample to be tested carried the same activity/volume. […] of diluted test material was added to 1 ml of CD630 culture and 0.2 ml removed hourly for OD600 readings.
# Optical density (OD600) was measured before and after addition of test material. A decline in OD600 indicates bacteriolytic activity while stalling of the increase in OD600 indicates either bacteriostatic or bacteriocidal growth. On the other hand a decline in CFU/ml indicates both bacteriolytic and/or bacteriocidal activity. (FIGS. 22A and 22B and Table 13).
# [2] = test system: M. tuberculosis H37Rv; test: MIC by resazurin microtitre assay (REMA); assay type: cell-based; conditions: Mycobacterium tuberculosis, 240 h, read-out: MIC, M. tuberculosis H37Rv
# [3] = lipopeptides of B. subtilis; cited from earlier work
# [4] = Solubility in water / appearance of solution; assay type: physicochemical
# Text: C15 iturin A is an example of a lipopeptide able to form micelles and is water-soluble. The inventors suspect that C15 iturin A may enable other lipopeptides to be solubilised in water and potentially form mixed micelles enabling them to target the bacterial cell. To test this, the inventors mixed water solubilised C15 iturin A with a commercial surfactin (Sigma S3523; derived from B. subtilis and a mixture of C13-C15 surfactins). […] The presence of C15 iturin A enables the solubilisation of […] in water and probably all or many of the other lipopeptides present in or on the cell wall of SG277 and other Bacillus species. The important requirements for activity are the concentration of lipopeptides that are produced (since micelles can only be formed at levels above a critical threshold). The micelles formed are most likely to be mixed micelles (i.e., carrying different lipopeptide species but all carrying C15 iturin A)(at least for B. amyloliquefaciens).
# [5] = test system: CD630; test: Microdilution assay of inhibitory activity against C. difficile strain 630; conditions: for activity to CD630 of commercial lipopeptides: commercial (SIGMA) samples, alone or combined
compound,measurement,setting,value
CC(N)C(=O)NC(C[C@@H]1C=C(Cl)C(=O)CC1)C(=O)O (some centres unmarked) [Chlorotetaine],"Bacteriocidal (cessation of cell growth, CD630 cfu/ml)",[1],bacteriocidal
NNC(=O)c1ccncc1 [Isoniazid],MIC,[2],0.25 µg/mL
CO[C@H]1/C=C/O[C@@]2(C)Oc3c(C)c(O)c4c(O)c(c(/C=N/N5CCN(C)CC5)c(O)c4c3C2=O)NC(=O)/C(C)=C\C=C\[C@H](C)[C@H](O)[C@@H](C)[C@@H](O)[C@@H](C)[C@H](OC(C)=O)[C@@H]1C [Rifampicin],MIC,[2],0.5 µg/mL
"CCC(C)CCCCCCCCCCC1CC(=O)N[C@@H](CC(N)=O)C(=O)N[C@@H](CCC(N)=O)C(=O)N2CCC[C@H]2C(=O)N[C@H](Cc2ccc(O)cc2)C(=O)N[C@H](CC(N)=O)C(=O)N[C@H](CC(N)=O)C(=O)N[C@H](CO)C(=O)N[C@@H](CC(N)=O)C(=O)N1 (some centres unmarked) [mycosubtilin, Mycosubtilin] (cyclo(NQP[dY][dN][dN][dS]N[X2]))",micelle size,[3],8-18 nm
"CC(C)CCCCCCCCC[C@@H]1CC(=O)N[C@@H](CCC(=O)O)C(=O)N[C@@H](CC(C)C)C(=O)N[C@H](CC(C)C)C(=O)N[C@@H](C(C)C)C(=O)N[C@@H](CC(=O)O)C(=O)N[C@H](CC(C)C)C(=O)N[C@@H](CC(C)C)C(=O)O1 [surfactin, Surfactin] (EL[dL]VD[dL]L; linker N-C via X1)",solubility in water,[4],not soluble in water
same,micelle size,[3],5-105 nm
same,activity against C. difficile (in words),[5],no activity
same,activity to CD630 of commercial lipopeptides,[5],unable to demonstrate any activity; also recorded: none showed activity
Iturin A,activity to CD630 of commercial lipopeptides,[5],unable to demonstrate any activity
same,activity to CD630 of commercial lipopeptides,[5]; listed as iturin,none showed activity
fengycin,activity to CD630 of commercial lipopeptides,[5],none showed activity
